Assay results: patent US20100267561A1, “HERBICIDAL PYRIDAZINONE DERIVATIVES” (priority 2007, published 2010)

Legend:
Format in all cases: in vivo
[1] = test system: wheat (Triticum aestivum); assay: Test A pre-/postemergence plant response
How it was run: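 Both pre- and postemergence treatment given concurrently; postemergence seedlings measured 2–10 cm at the one- to two-leaf stage. Visual injury, 0–100 scale versus untreated, at ~10 days.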

[2] = test system: common ragweed (Ambrosia elation); assay: Test B pre-/postemergence plant response; conditions: for Ragweed plant response rating: 8 g ai/ha
How it was run: (§1)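 Preemergence and postemergence (plants 2-18 cm, 1- to 4-leaf stage) applications used test chemicals in a non-phytotoxic solvent with surfactant. Plants were held in a greenhouse 13 to 15 days, then rated visually against controls on a 0-100 scale (0 no effect, 100 complete control).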

[3] = test system: woolly cupgrass (Eriochloa villosa); assay: Test B pre-/postemergence plant response; conditions: for Cupgrass, Woolly plant response rating: 8 g ai/ha
How it was run: as §1

[4] = test system: Russian thistle (Salsola iberica); assay: Test B pre-/postemergence plant response; conditions: Preemergence; for Russian Thistle plant response rating: 8 g ai/ha
How it was run: as §1

[5] = test system: yellow nutsedge (Cyperus esculentus); assay: Test B pre-/postemergence plant response; conditions: for Nutsedge, Yellow plant response rating: 8 g ai/ha
How it was run: as §1

[6] = test system: Italian ryegrass (Lolium multiflorum); assay: Test B pre-/postemergence plant response; conditions: for Ryegrass, Italian plant response rating: 8 g ai/ha
How it was run: as §1

kochia (Kochia scoparia) = assay: Test B pre-/postemergence plant response; conditions: for Kochia plant response rating: 8 g ai/ha
How it was run: as §1

[7] = test system: eastern black (E.B.) nightshade (Solanum ptycanthum); assay: Test B pre-/postemergence plant response; conditions: Preemergence; for Nightshade, E. B. plant response rating: 8 g ai/ha
How it was run: as §1

[8] = test system: pigweed (Amaranthus retroflexus); assay: Test B pre-/postemergence plant response; conditions: for Pigweed plant response rating: 8 g ai/ha
How it was run: as §1

[9] = test system: cocklebur (Xanthium strumarium); assay: Test B pre-/postemergence plant response; conditions: for Cocklebur plant response rating: 8 g ai/ha
How it was run: as §1

soybean (Glycine max) = assay: Test B pre-/postemergence plant response; conditions: for Soybean plant response rating: 8 g ai/ha
How it was run: as §1

[10] = test system: goosegrass (Eleusine indica); assay: Test B pre-/postemergence plant response; conditions: for Goosegrass plant response rating: 8 g ai/ha
How it was run: as §1

[11] = Postemergence, 31 g ai/ha, 0 to 100 scale (0 no effect, 100 complete control)
[12] = Postemergence, 125 g ai/ha, 0 to 100 scale, 0 no effect, 100 complete control
[13] = Preemergence, 31 g ai/ha, 0 to 100 scale, 0 is no effect, 100 is complete control
[14] = Preemergence, 125 g ai/ha, 0 to 100 scale (0 no effect, 100 complete control)
[15] = Postemergence, 16 g ai/ha, scale 0 to 100
[16] = Postemergence, 31 g ai/ha, scale 0 to 100, 0 no effect, 100 complete control
[17] = Postemergence, 62 g ai/ha, scale 0 to 100, 0 no effect, 100 complete control
[18] = Preemergence, 16 g ai/ha, scale 0 to 100 (0 no effect, 100 complete control)
[19] = Preemergence, 31 g ai/ha, 0 to 100 scale, 0 no effect, 100 complete control
[20] = Preemergence, 62 g ai/ha, scale 0 to 100
[21] = 16 g ai/ha, scale 0 to 100 (0 no effect, 100 complete control)
[22] = 31 g ai/ha, 0 to 100 scale, 0 no effect, 100 complete control
[23] = Postemergence, 62 g ai/ha, scale 0 to 100

SMILES: CCc1cc(-c2ccc(Cl)cc2)nn1-c1c(OS(C)(=O)=O)cnn(C)c1=O [Compound 39]
- Plant response rating, Wheat [1, 11]: 40
- Plant response rating, Wheat [1, 12]: 80
- Plant response rating, Wheat [1, 13]: 40
- Plant response rating, Wheat [1, 14]: 80
- Ragweed plant response rating ([2]; postemergence, 0-100 scale): 0
- Plant response rating, Ragweed [2, 15]: 0
- Plant response rating, Ragweed [2, 16]: 0
- Plant response rating, Ragweed [2, 17]: 0
- Plant response rating, Ragweed [2, 18]: 0
- Plant response rating, Ragweed [2, 19]: 0
- Plant response rating, Ragweed [2, 20]: 0
- Ragweed plant response rating ([2]; Preemergence, scale 0 to 100): 0
- Cupgrass, Woolly plant response rating ([3]; postemergence, 0-100 scale): 80
- Plant response rating, Cupgrass, Woolly [3, 15]: 95
- Plant response rating, Cupgrass, Woolly [3, 16]: 100
- Plant response rating, Cupgrass, Woolly [3, 17]: 100
- Plant response rating, Cupgrass, Woolly [3, 18]: 65
- Plant response rating, Cupgrass, Woolly [3, 19]: 95
- Plant response rating, Cupgrass, Woolly [3, 20]: 98
- Cupgrass, Woolly plant response rating ([3]; Preemergence, scale 0 to 100): 20
- Plant response rating, Russian Thistle [4, 21]: 0
- Plant response rating, Russian Thistle [4, 22]: 0
- Plant response rating, Russian Thistle ([4]; 62 g ai/ha, scale 0 to 100): 0
- Russian Thistle plant response rating ([4]; scale 0 to 100): 0
- Nutsedge, Yellow plant response rating ([5]; postemergence, 0-100 scale): 0
- Plant response rating, Nutsedge, Yellow [5, 15]: 0
- Plant response rating, Nutsedge, Yellow [5, 16]: 0
- Plant response rating, Nutsedge, Yellow [5, 17]: 0
- Plant response rating, Nutsedge, Yellow [5, 18]: 0
- Plant response rating, Nutsedge, Yellow [5, 19]: 0
- Plant response rating, Nutsedge, Yellow [5, 20]: 0
- Nutsedge, Yellow plant response rating ([5]; Preemergence, scale 0 to 100): 0
- Ryegrass, Italian plant response rating ([6]; postemergence, 0-100 scale): 30
- Plant response rating, Ryegrass, Italian [6, 15]: 90
- Plant response rating, Ryegrass, Italian [6, 16]: 95
- Plant response rating, Ryegrass, Italian [6, 17]: 100
- Plant response rating, Ryegrass, Italian [6, 18]: 95
- Plant response rating, Ryegrass, Italian [6, 19]: 100
- Plant response rating, Ryegrass, Italian [6, 20]: 100
- Ryegrass, Italian plant response rating ([6]; Preemergence, scale 0 to 100): 90
- Kochia plant response rating (kochia (Kochia scoparia); postemergence, 0-100 scale): 0
- Plant response rating, Kochia (kochia (Kochia scoparia); [15]): 0
- Plant response rating, Kochia (kochia (Kochia scoparia); [16]): 0
- Plant response rating, Kochia (kochia (Kochia scoparia); [17]): 0
- Plant response rating, Kochia (kochia (Kochia scoparia); [18]): 0
- Plant response rating, Kochia (kochia (Kochia scoparia); [19]): 0
- Plant response rating, Kochia (kochia (Kochia scoparia); [20]): 0
- Kochia plant response rating (kochia (Kochia scoparia); Preemergence, scale 0 to 100): 0
- Plant response rating, Nightshade, E. B. [7, 21]: 0
- Plant response rating, Nightshade, E. B. [7, 22]: 0
- Plant response rating, Nightshade, E. B. ([7]; 62 g ai/ha, scale 0 to 100): 0
- Nightshade, E. B. plant response rating ([7]; scale 0 to 100): 0
- Pigweed plant response rating ([8]; postemergence, 0-100 scale): 0
- Plant response rating, Pigweed [8, 15]: 0
- Plant response rating, Pigweed [8, 16]: 0
- Plant response rating, Pigweed [8, 17]: 0
- Plant response rating, Pigweed [8, 18]: 0
- Plant response rating, Pigweed [8, 19]: 0
- Plant response rating, Pigweed [8, 20]: 0
- Pigweed plant response rating ([8]; Preemergence, scale 0 to 100): 0
- Cocklebur plant response rating ([9]; postemergence, 0-100 scale): 0
- Plant response rating, Cocklebur [9, 15]: 0
- Plant response rating, Cocklebur [9, 16]: 0
- Plant response rating, Cocklebur [9, 17]: 0
- Plant response rating, Cocklebur [9, 18]: 0
- Plant response rating, Cocklebur [9, 19]: 0
- Plant response rating, Cocklebur [9, 20]: 0
- Cocklebur plant response rating ([9]; Preemergence, scale 0 to 100): 0
- Soybean plant response rating (soybean (Glycine max); postemergence, 0-100 scale): 0
- Plant response rating, Soybean (soybean (Glycine max); [15]): 0
- Plant response rating, Soybean (soybean (Glycine max); [17]): 0
- Plant response rating, Soybean (soybean (Glycine max); [18]): 0
- Plant response rating, Soybean (soybean (Glycine max); [19]): 0
- Plant response rating, Soybean (soybean (Glycine max); [20]): 0
- Soybean plant response rating (soybean (Glycine max); Preemergence, scale 0 to 100): 0
- Goosegrass plant response rating ([10]; postemergence, 0-100 scale): 20
- Plant response rating, Goosegrass [10, 15]: 65
- Plant response rating, Goosegrass [10, 16]: 85
- Plant response rating, Goosegrass [10, 17]: 100
- Plant response rating, Goosegrass [10, 18]: 100
- Plant response rating, Goosegrass [10, 19]: 100
- Plant response rating, Goosegrass [10, 20]: 100
- Goosegrass plant response rating ([10]; Preemergence, scale 0 to 100): 95

SMILES: CCc1cc(-c2ccc(F)cc2)nn1-c1c(O)cnn(C)c1=O [Compound 25]
- Plant response rating, Wheat [1, 11]: 0
- Plant response rating, Wheat [1, 12]: 20
- Plant response rating, Wheat [1, 13]: 0
- Plant response rating, Wheat [1, 14]: 50
- Ragweed plant response rating ([2]; postemergence, 0-100 scale): 0
- Plant response rating, Ragweed [2, 15]: 0
- Plant response rating, Ragweed [2, 16]: 0
- Plant response rating, Ragweed [2, 23]: 0
- Plant response rating, Ragweed [2, 18]: 0
- Plant response rating, Ragweed [2, 19]: 0
- Plant response rating, Ragweed [2, 20]: 0
- Ragweed plant response rating ([2]; Preemergence, scale 0 to 100): 0
- Cupgrass, Woolly plant response rating ([3]; postemergence, 0-100 scale): 60
- Plant response rating, Cupgrass, Woolly [3, 15]: 80
- Plant response rating, Cupgrass, Woolly [3, 16]: 85
- Plant response rating, Cupgrass, Woolly [3, 23]: 100
- Plant response rating, Cupgrass, Woolly [3, 18]: 40
- Plant response rating, Cupgrass, Woolly [3, 19]: 80
- Plant response rating, Cupgrass, Woolly [3, 20]: 80
- Cupgrass, Woolly plant response rating ([3]; Preemergence, scale 0 to 100): 0
- Plant response rating, Russian Thistle [4, 21]: 0
- Plant response rating, Russian Thistle [4, 22]: 0
- Plant response rating, Russian Thistle ([4]; 62 g ai/ha, scale 0 to 100): 0
- Russian Thistle plant response rating ([4]; scale 0 to 100): 0
- Nutsedge, Yellow plant response rating ([5]; postemergence, 0-100 scale): 0
- Plant response rating, Nutsedge, Yellow [5, 15]: 0
- Plant response rating, Nutsedge, Yellow [5, 16]: 0
- Plant response rating, Nutsedge, Yellow [5, 23]: 0
- Plant response rating, Nutsedge, Yellow [5, 18]: 0
- Plant response rating, Nutsedge, Yellow [5, 19]: 0
- Plant response rating, Nutsedge, Yellow [5, 20]: 0
- Nutsedge, Yellow plant response rating ([5]; Preemergence, scale 0 to 100): 0
- Ryegrass, Italian plant response rating ([6]; postemergence, 0-100 scale): 60
- Plant response rating, Ryegrass, Italian [6, 15]: 80
- Plant response rating, Ryegrass, Italian [6, 16]: 85
- Plant response rating, Ryegrass, Italian [6, 23]: 95
- Plant response rating, Ryegrass, Italian [6, 18]: 50
- Plant response rating, Ryegrass, Italian [6, 19]: 90
- Plant response rating, Ryegrass, Italian [6, 20]: 100
- Ryegrass, Italian plant response rating ([6]; Preemergence, scale 0 to 100): 50
- Kochia plant response rating (kochia (Kochia scoparia); postemergence, 0-100 scale): 0
- Plant response rating, Kochia (kochia (Kochia scoparia); [15]): 0
- Plant response rating, Kochia (kochia (Kochia scoparia); [16]): 0
- Plant response rating, Kochia (kochia (Kochia scoparia); [23]): 0
- Plant response rating, Kochia (kochia (Kochia scoparia); [18]): 0
- Plant response rating, Kochia (kochia (Kochia scoparia); [20]): 50
- Kochia plant response rating (kochia (Kochia scoparia); Preemergence, scale 0 to 100): 0
- Plant response rating, Nightshade, E. B. [7, 21]: 0
- Plant response rating, Nightshade, E. B. [7, 22]: 0
- Plant response rating, Nightshade, E. B. ([7]; 62 g ai/ha, scale 0 to 100): 0
- Nightshade, E. B. plant response rating ([7]; scale 0 to 100): 0
- Pigweed plant response rating ([8]; postemergence, 0-100 scale): 0
- Plant response rating, Pigweed [8, 15]: 0
- Plant response rating, Pigweed [8, 16]: 0
- Plant response rating, Pigweed [8, 23]: 10
- Plant response rating, Pigweed [8, 18]: 0
- Plant response rating, Pigweed [8, 19]: 0
- Plant response rating, Pigweed [8, 20]: 80
- Pigweed plant response rating ([8]; Preemergence, scale 0 to 100): 0
- Cocklebur plant response rating ([9]; postemergence, 0-100 scale): 0
- Plant response rating, Cocklebur [9, 15]: 0
- Plant response rating, Cocklebur [9, 16]: 0
- Plant response rating, Cocklebur [9, 23]: 0
- Plant response rating, Cocklebur [9, 18]: 0
- Plant response rating, Cocklebur [9, 19]: 0
- Plant response rating, Cocklebur [9, 20]: 0
- Cocklebur plant response rating ([9]; Preemergence, scale 0 to 100): 0
- Soybean plant response rating (soybean (Glycine max); postemergence, 0-100 scale): 0
- Plant response rating, Soybean (soybean (Glycine max); [15]): 0
- Plant response rating, Soybean (soybean (Glycine max); [16]): 0
- Plant response rating, Soybean (soybean (Glycine max); [23]): 0
- Plant response rating, Soybean (soybean (Glycine max); [18]): 0
- Plant response rating, Soybean (soybean (Glycine max); [19]): 0
- Plant response rating, Soybean (soybean (Glycine max); [20]): 0
- Soybean plant response rating (soybean (Glycine max); Preemergence, scale 0 to 100): 0
- Goosegrass plant response rating ([10]; postemergence, 0-100 scale): 0
- Plant response rating, Goosegrass [10, 15]: 0
- Plant response rating, Goosegrass [10, 16]: 0
- Plant response rating, Goosegrass [10, 23]: 50
- Plant response rating, Goosegrass [10, 18]: 50
- Plant response rating, Goosegrass [10, 19]: 75
- Plant response rating, Goosegrass [10, 20]: 85
- Goosegrass plant response rating ([10]; Preemergence, scale 0 to 100): 0
